Patent US11479563B2, “Biphenyl compound or salt thereof” (TAIHO PHARMACEUTICAL CO., LTD., priority 2017, dated 2022)
Counter-ions that a name gives are not always drawn.

Tests used:
[1] = system: NCI-H1417 cells (human small-cell lung cancer cell lines); experiment: cells; details: NCI-H1417, read-out: Cell-Growth Inhibition Test: NCI-H1417 Cells IC50 (nM);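 further: growth of NCI-H1417 cells over 10 days at 37 °C, read as viable-cell luminescence by CellTiter-Glo 2.0, expressed as % of DMSO-only control wells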
[2] = system: HEL cells (human acute myelocytic leukemia cell lines); experiment: cells; details: read-out: Cell-Growth Inhibition Test: HEL Cells IC50 (nM);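 further: viable cell count by CellTiter-Glo 2.0 luminescence after 5 days of culture at 37 °C, growth expressed relative to DMSO-only wells as 100%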
[3] = system: NCI-H146 cells (human small-cell lung cancer cell lines); experiment: Cell-growth inhibition test: NCI-H146 cells; type: cell-based; details: Homo sapiens, NCI-H146, read-out: Cell-Growth Inhibition Test: NCI-H146 Cells IC50 (nM)
Experimental: Under the following conditions, an in vitro cell-growth inhibition test was performed with respect to HEL cells (human acute myelocytic leukemia cell lines), NCI-H1417 cells (human small-cell lung cancer cell lines), and NCI-H146 cells (human small-cell lung cancer cell lines).
The cells with the compound of the present invention or with dimethylsulfoxide alone were cultured at 37° C. in a 5% carbon-dioxide-containing incubator for 5 days (HEL cells) or 10 days (NCI-H1417 cells and NCI-H146 cells). After culture, the plate was allowed to stand at room temperature for 30 minutes, and 100 μL of the supernatant was removed from each well to leave 100 μL of the cell culture solution. To each well containing the remaining 100 μL of the cell culture solution, the same amount of CellTiter-Glo 2.0 Assay (Promega, Cat #: G9242) was added. The microplate was shaken with a plate mixer for 1 minute and then allowed to stand in a dark place for 10 minutes. Thereafter, the luminescence intensity of viable cells in each well was measured using a microplate reader (PerkinElmer, EnSpire). […] Cell growth rate (%)=T/C×100 T: The luminescence intensity in a well to which the compound of the present invention was added (count per second) C: The luminescence intensity in a well to which dimethylsulfoxide alone was added (count per second)

Cn1ccc2cc(-c3ccc(C(=O)N4[C@@H]5CC[C@H]4C[C@H](N)C5)cc3-c3ccc(C#N)c(F)c3)ccc21 [Example 18]
IC50 [1]: 4.73 nM | IC50 [2]: 3.55 nM | IC50 [3]: 8.13 nM

COCCc1ccc(-c2ccc(C(=O)N3[C@@H]4CC[C@H]3C[C@@H](N)C4)cc2-c2ccc(C#N)c(F)c2)c(F)c1 [Example 22]
IC50 [1]: 8.2 nM | IC50 [2]: 3.51 nM | IC50 [3]: 15 nM

Cn1ccc2cc(-c3ccc(C(=O)N4[C@@H]5CC[C@H]4C[C@H](N)C5)cc3-c3ccc(C#N)c(F)c3)c(F)cc21 [Example 23]
IC50 [1]: 0.99 nM | IC50 [2]: 0.73 nM | IC50 [3]: 9.33 nM

Cn1ncc2cc(-c3ccc(C(=O)N4[C@@H]5CC[C@H]4C[C@H](N)C5)cc3-c3ccc(C#N)c(F)c3)c(F)cc21 [Example 24]
IC50 [1]: 0.97 nM | IC50 [2]: 3.56 nM | IC50 [3]: 4.04 nM

CC(C)(O)Cc1ccc(-c2ccc(C(=O)N3[C@@H]4CC[C@H]3C[C@@H](N)C4)cc2-c2ccc(C#N)c(F)c2)c(F)c1 [Example 41]
IC50 [1]: 6.12 nM | IC50 [2]: 4.98 nM | IC50 [3]: 9.76 nM

Cn1ccc2cc(-c3ccc(C(=O)N4[C@@H]5CC[C@H]4C[C@@H](N)C5)cc3-c3ccc(C#N)c(F)c3)c(F)cc21 [Example 123]
IC50 [1]: 3.57 nM | IC50 [2]: 1.39 nM | IC50 [3]: 1.39 nM

Cn1cnc2cc(-c3ccc(C(=O)N4[C@@H]5CC[C@H]4C[C@@H](N)C5)cc3-c3ccc(C#N)c(F)c3)c(F)c(F)c21 [Example 126]
IC50 [1]: 5.02 nM | IC50 [2]: 5.39 nM

Cn1cnc2cc(-c3ccc(C(=O)N4[C@@H]5CC[C@H]4C[C@@H](N)C5)cc3-c3ccc(C#N)c(F)c3)c(F)cc21 [Example 130]
IC50 [1]: 8.25 nM | IC50 [2]: 22.2 nM

CN(C)c1ccc(-c2ccc(C(=O)N3[C@@H]4CC[C@H]3C[C@@H](N)C4)cc2-c2ccc(C#N)c(F)c2)cn1 [Example 131]
IC50 [1]: 30.9 nM | IC50 [2]: 15.2 nM

Cn1c(=O)sc2cc(-c3ccc(C(=O)N4[C@@H]5CC[C@H]4C[C@@H](N)C5)cc3-c3ccc(C#N)c(F)c3)ccc21 [Example 133]
IC50 [1]: 17.9 nM | IC50 [2]: 17.7 nM

CC(C)(O)Cn1ccc2cc(-c3ccc(C(=O)N4[C@@H]5CC[C@H]4C[C@@H](N)C5)cc3-c3ccc(C#N)c(F)c3)c(F)cc21 [Example 136]
IC50 [1]: 2.39 nM | IC50 [2]: 0.9 nM

CC(C)(O)Cn1ncc2cc(-c3ccc(C(=O)N4[C@@H]5CC[C@H]4C[C@@H](N)C5)cc3-c3ccc(C#N)c(F)c3)c(F)cc21 [Example 142]
IC50 [1]: 3.79 nM | IC50 [2]: 3.86 nM

Cn1nnc2cc(-c3ccc(C(=O)N4[C@@H]5CC[C@H]4C[C@@H](N)C5)cc3-c3ccc(C#N)c(F)c3)c(F)c(F)c21 [Example 145]
IC50 [1]: 3.29 nM | IC50 [2]: 1.61 nM

CCn1nnc2cc(-c3ccc(C(=O)N4[C@@H]5CC[C@H]4C[C@@H](N)C5)cc3-c3ccc(C#N)c(F)c3)c(F)cc21 [Example 160]
IC50 [1]: 9.2 nM | IC50 [2]: 7.03 nM

CC(C)(O)Cn1nnc2cc(-c3ccc(C(=O)N4[C@@H]5CC[C@H]4C[C@@H](N)C5)cc3-c3ccc(C#N)c(F)c3)c(F)c(F)c21 [Example 161]
IC50 [1]: 2.49 nM | IC50 [2]: 6.88 nM | IC50 [3]: 1.09 nM

CC(C)(O)Cn1nnc2cc(-c3ccc(C(=O)N4CC[C@H](N)C4)cc3-c3ccc(C#N)c(F)c3)c(F)c(F)c21 [Example 162]
IC50 [1]: 4.69 nM | IC50 [2]: 17.7 nM

CCCn1nnc2cc(-c3ccc(C(=O)N4[C@@H]5CC[C@H]4C[C@@H](N)C5)cc3-c3ccc(C#N)c(F)c3)c(F)cc21 [Example 168]
IC50 [1]: 7.29 nM | IC50 [2]: 5.29 nM

CC(C)(O)Cn1nc(Br)c2cc(-c3ccc(C(=O)N4[C@@H]5CC[C@H]4C[C@@H](N)C5)cc3-c3ccc(C#N)c(F)c3)c(F)cc21 [Example 178, 5′-((3-endo)-3-amino-8-azabicyclo[3.2.1]octane-8-carbonyl)-2′-(3-bromo-6-fluoro-1-(2-hydroxy-2-methylpropyl)-1H-indazol-5-yl)-3-fluoro-[1,1′-biphenyl]-4-carbonitrile]
IC50 [1]: 3.03 nM | IC50 [2]: 3.57 nM

Cc1nn(CC(C)(C)O)c2cc(F)c(-c3ccc(C(=O)N4[C@@H]5CC[C@H]4C[C@@H](N)C5)cc3-c3ccc(C#N)c(F)c3)cc12 [Example 181, 5′-((3-endo)-3-amino-8-azabicyclo[3.2.1]octane-8-carbonyl)-3-fluoro-2′-(6-fluoro-1-(2-hydroxy-2-methylpropyl)-3-methyl-1H-indazol-5-yl)-[1,1′-biphenyl]-4-carbonitrile]
IC50 [1]: 4.6 nM | IC50 [2]: 9.06 nM | IC50 [3]: 2.93 nM

CC(C)(O)Cn1ccc2cc(-c3ccc(C(=O)N4[C@@H]5CC[C@H]4C[C@@H](N)C5)cc3-c3ccc(C#N)c(F)c3)c(F)c(F)c21 [Example 183, 5′-((3-endo)-3-amino-8-azabicyclo[3.2.1]octane-8-carbonyl)-2′-(6,7-difluoro-1-(2-hydroxy-2-methylpropyl)-1H-indol-5-yl)-3-fluoro-[1,1′-biphenyl]-4-carbonitrile]
IC50 [1]: 1.01 nM | IC50 [2]: 0.54 nM | IC50 [3]: 0.25 nM

CC(C)(O)Cn1cc(C(=O)O)c2cc(-c3ccc(C(=O)N4C5CCC4C(N)C5)cc3-c3ccc(C#N)c(F)c3)c(F)cc21 [Example 222, 5-(5-((1S,2S,4R)-rel-2-amino-7-azabicyclo[2.2.1]heptane-7-carbonyl)-4′-cyano-3′-fluoro-[1,1′-biphenyl]-2-yl)-6-fluoro-1-(2-hydroxy-2-methylpropyl)-1H-indole-3-carboxylic acid-isomer-X]
IC50 [1]: 41.8 nM | IC50 [2]: 38 nM

CC(C)(O)Cn1nnc2cc(-c3ccc(C(=O)N4C5CCC4C(N)C5)cc3-c3ccc(C#N)c(F)c3)c(F)c(C(F)F)c21 [Example 246, 5′-((1S,2S,4R)-rel-2-amino-7-azabicyclo[2.2.1]heptane-7-carbonyl)-2′-(7-(difluoromethyl)-6-fluoro-1-(2-hydroxy-2-methylpropyl)-1H-benzo[d][1,2,3]triazol-5-yl)-3-fluoro-[1,1′-biphenyl]-4-carbonitrile-isomer-X]
IC50 [1]: 0.81 nM | IC50 [2]: 0.37 nM

N#Cc1ccc(-c2cc(C(=O)N3C4CCC3C(N)C4)ccc2-c2cc3nnn(CC4(O)CCC4)c3c(Cl)c2F)cc1F [Example 257, 5′-((1S,2S,4R)-rel-2-amino-7-azabicyclo[2.2.1]heptane-7-carbonyl)-2′-(7-chloro-6-fluoro-1-((1-hydroxycyclobutyl)methyl)-1H-benzo[d][1,2,3]triazol-5-yl)-3-fluoro-[1,1′-biphenyl]-4-carbonitrile-isomer-X]
IC50 [2]: 0.13 nM | IC50 [3]: 0.39 nM

N#Cc1ccc(-c2cc(C(=O)N3[C@@H]4CC[C@H]3C[C@@H](N)C4)ccc2-c2cc3nnn(CC4(O)CCC4)c3c(C(F)F)c2F)cc1F [Example 262, 5′-((3-endo)-3-amino-8-azabicyclo[3.2.1]octane-8-carbonyl)-2′-(7-(difluoromethyl)-6-fluoro-1-((1-hydroxycyclobutyl)methyl)-1H-benzo[d][1,2,3]triazol-5-yl)-3-fluoro-[1,1′-biphenyl]-4-carbonitrile]
IC50 [2]: 0.93 nM | IC50 [3]: 3.1 nM

CC(C)(O)Cn1nnc2cc(-c3ccc(C(=O)N4C5CCC4C(N)C5)cc3-c3ccc(C#N)c(F)c3)c(F)c(Br)c21 [Example 273, 5′-((1S,2S,4R)-rel-2-amino-7-azabicyclo[2.2.1]heptane-7-carbonyl)-2′-(7-bromo-6-fluoro-1-(2-hydroxy-2-methylpropyl)-1H-benzo[d][1,2,3]triazol-5-yl)-3-fluoro-[1,1′-biphenyl]-4-carbonitrile-isomer-X]
IC50 [2]: 0.27 nM | IC50 [3]: 0.63 nM

CC(C)(O)Cn1nnc2cc(-c3ccc(C(=O)N4C5CCC4C(N)C5)cc3-c3ccc(C#N)c(F)c3)c(F)c(C3CC3)c21 [Example 279, 5′-((1R,2R,4S)-rel-2-amino-7-azabicyclo[2.2.1]heptane-7-carbonyl)-2′-(7-cyclopropyl-6-fluoro-1-(2-hydroxy-2-methylpropyl)-1H-benzo[d][1,2,3]triazol-5-yl)-3-fluoro-[1,1′-biphenyl]-4-carbonitrile-isomer-X]
IC50 [1]: 0.9 nM | IC50 [2]: 1.59 nM

CC(C)(O)Cn1ncc2cc(-c3ccc(CN4C5CCC4C(N)C5)cc3-c3ccc(C#N)c(F)c3)c(F)cc21 [Example 287, 5′-(((1S,2S,4R)-rel-2-amino-7-azabicyclo[2.2.1]heptan-7-yl)methyl)-3-fluoro-2′-(6-fluoro-1-(2-hydroxy-2-methylpropyl)-1H-indazol-5-yl)-[1,1′-biphenyl]-4-carbonitrile-isomer-X dihydrochloride]
IC50 [1]: 0.1 nM | IC50 [3]: 0.2 nM

CC(C)(O)Cc1ccc(-c2ccc(CN3C4CCC3C(N)C4)cc2-c2ccc(C#N)c(F)c2)c(F)c1 [Example 290, 5′-(((1S,2S,4R)-rel-2-amino-7-azabicyclo[2.2.1]heptan-7-yl)methyl)-2″,3-difluoro-4″-(2-hydroxy-2-methylpropyl)-[1,1′:2′,1″-terphenyl]-4-carbonitrile-isomer-X dihydrochloride]
IC50 [1]: 1.06 nM | IC50 [3]: 2.12 nM
